According to PMC6804243, “Small-Molecule Inhibition of UBE2T/FANCL-Mediated Ubiquitylation in the Fanconi Anemia Pathway” (ACS Chemical Biology, 2019):
Entries after “also recorded” stand apart in the source; their conditions may differ.

Columns and labels:
Assay type in all cases: biochemical
[1] = test system: T1, UBE2D1 / GST-FANCLRING; assay: Gel-based ubiquitylation assay, E2 = UBE2D1, E3 = GST-FANCLRING; details: 30 min at 37 °C, Western blot
T1 construct: the RING domain (residues 275–375) of the E3 FANCL (FANCLRING); His6 (N); made in house; host or cells: E. coli Rosetta (DE3)
Experimental: (§1) Figure 2 Gel-based ubiquitylation assays with confirmed HTRF hits. […] Western blots (WB) probed for GST or biotin as labeled. Reactions contained 20 nM His6-UBE1, 50 nM E2, 250 nM GST-E3, 500 nM biotinylated ubiquitin: (a) E2 = UBE2T, E3 = GST-FANCLRING, 30 min of reaction at 37 °C; (b) E2 = UBE2D1, E3 = GST-FANCLRING, 30 min of reaction at 37 °C; and (c) E2 = UBE2D1, E3 = GST-RNF8, 10 min of reaction at 37 °C.
In order to explore the selectivity of CU1, CU2, CU9, CU10, and CU12, we conducted a counter-screen against other E2 and E3 combinations. Since members of the UBE2D family of E2s are known to ubiquitylate multiple substrates in vitro,[13] a ubiquitylation assay featuring UBE2D1 and GST-FANCLRING was performed. With UBE2D1, multiple ubiquitylated GST-FANCLRING species could be observed (Figure 2b).
(§2) Purified protein was concentrated using a Vivaspin-6 concentrator with a 10 kDa MW cut-off (Vivascience) and flash-frozen in small aliquots for storage at […]
(§3) Cy5 labelling of ubiquitin. To a 5 mg/mL solution of recombinant human ubiquitin (Boston Biochem) in 0.1 M NaHCO3 pH 8.3, was added a 4-fold molar excess of Cyanine5 NHS ester (Lumiprobe). The reaction was incubated at 23 °C for 4 hours in the dark. The protein was separated from unreacted dye by passage through a PD-10 desalting column (GE Healthcare) equilibrated with PBS. Purified protein was concentrated using a Vivaspin-6 concentrator with a 3 kDa MW cut-off (Vivascience) and flash-frozen in small aliquots for storage […]
(§4) Homogeneous Time-Resolved Fluorescence (HTRF) Assay. GST-FANCLRING (200 nM) was incubated with anti-GST Tb (CisBio, #61GSTTL) (2.5 ng final) at room temperature for 30 minutes in assay buffer (50 mM Tris-HCl pH 8.0, 1 mM TCEP, 5 mM MgCl2, 0.005% Tween-20). Meanwhile, 10 μL of UBE2T in assay buffer (or assay buffer alone for no enzyme controls) was incubated in a white 384-well plate (Corning) with 20 nL DMSO or compound in DMSO. After 30 minutes, the GST-RINGRING solution was added to an equal volume solution containing His-UBE1 (Boston Biochem) (16 nM), Cy5-ubiquitin (400 nM), ATP (0.8 mM) in assay buffer. 10 μL of this solution was immediately added to each well of the 384 -well plate containing UBE2T or buffer. F inal concentrations: His -UBE1 (4 nM), UBE2T (6 nM), GST -RINGRING (50 nM), Cy5-ubiquitin (100 nM), ATP (0.2 mM), compound (10 or 20 μM) in 0.1 %
(§5) (v/v) DMSO. After a 10 minute incubation at 23 °C, 5 µL of a 50 mM EDTA solution were added to each well to stop the reaction. Signal was measured at λEx 340 nm and λEm 665 nm and 620 nm using a PHERAstar FS plate reader
(§6) (BMG Labtech). A ratio was calculated as [λEm(665)/λEm(620)] × 104 for each well and this was used to determine the percent inhibition for test compounds.
(§7) Gel-based ubiquitylation assays. Assays were carried out in a total volume of 10 µL containing 20 nM His6-UBE1 (Boston Biochem), 50 nM UBE2T, 250 nM GST-E3 and 500 nM biotinylated ubiquitin (Boston Biochem) in buffer (50 […]
(§8) Reaction mixtures were incubated for the indicated time at 37 °C and stopped by the addition of 2X reducing SDS -PAGE sample buffer, separated on NuPAGE Novex 4 –12% Bis/Tris gradient gels (Invitrogen) and visualized by Western blotting using the indicated antibodies (Table S3).
Cell culture. […]

[2] = test system: T2, UBE2T; assay: Gel-based ubiquitylation assay (UBE2T/GST-FANCLRING), blot probed for UBE2T; details: compound 100 μM, Western blot probed for UBE2T
T2 construct: His6 (N); made in house; host or cells: E. coli Rosetta (DE3)

[3] = test system: T3, UBE2D1 / GST-RNF8; assay: Gel-based ubiquitylation assay, E2 = UBE2D1, E3 = GST-RNF8; details: 10 min at 37 °C, Western blot
T3 construct: His6 (N); made in house; host or cells: E. coli Rosetta (DE3)
Experimental: as §1
A further ubiquitylation assay was performed with an alternative E3, RNF8, which also plays important roles in the DDR.[14] In contrast to GST-FANCLRING, long polyubiquitin chains were attached to GST-RNF8 by UBE2D1 (Figure 2c).
as §2, §3, §4, §5, §6, §7, §8
Cell culture. U2OS cells were cultured at 37 °C in a humidified atmosphere and 5% (v/v) CO2 in Dulbecco's Modified Eagle Medium (DMEM; Sigma-Aldrich) supplemented with 10% (v/v) fetal bovine serum (FBS), 100 units/ml of penicillin, […] of streptomycin and 292 μg/mL L-glutamine.
Cell extract preparation and immunoblotting. U2OS cells were lysed in buffer containing 50 mM Tris-HCl pH 7.5, 2% SDS, 10 mM NEM, cocktail protease inhibitor (Roche) and phosphatase inhibitor cocktail followed by sonication 100 µg of extracts were boiled for 5 mins at 95 °C in 5X loading buffer and loaded onto NuPAGE Novex 4–12% Bis/Tris gradient gels
(Invitrogen), or NuPAGE Novex 3-8% Tris/Acetate gradient gels (Invitrogen) for detection of mUb-FANCD2. After separation the gels were transferred to PVDF and the membranes were blocked with Tris-buffered saline containing 0.1% (v/v) Tween-20 (TBST) and 5% (v/v) bovine serum albumin (BSA) and […]

[4] = test system: T4, UBE2T / GST-FANCLRING; assay: Gel-based ubiquitylation assay, E2 = UBE2T, E3 = GST-FANCLRING; details: compound 100 μM, 30 min at 37 °C, Western blot
T4 construct: the RING domain (residues 275–375) of the E3 FANCL (FANCLRING); His6 (N); made in house; host or cells: E. coli Rosetta (DE3)

Compound	ubiquitylation of GST-FANCLRING [1]	ubiquitylation of UBE2T [2]	ubiquitylation of GST-RNF8 and UBE2D1 [3]	ubiquitylation of GST-RNF8 and UBE2D1 ([3]; listed as CU 1)	ubiquitylation of GST-FANCLRING (mUb-GST-FANCLRING band) [4]	ubiquitylation of GST-FANCLRING (mUb-GST-FANCLRING band) ([4]; listed as CU 1)	ubiquitylation of UBE2T ([2]; listed as 2)	ubiquitylation of UBE2T ([2]; listed as 9)	ubiquitylation of UBE2T ([2]; listed as 12)
NCCN1C(=O)CC[C@H]2CN(Cc3cccc(-c4ccco4)c3)CC[C@H]21 [CU1]	essentially abolished the ubiquitylation of GST-FANCLRING	did not affect ubiquitylation of either UBE2T or UBE1; also recorded: unaffected	but not GST-RNF8	no detectable effects on ubiquitylation of GST-RNF8 and UBE2D1	no ubiquitylation of FANCLRING was observed; also recorded: inhibit the ubiquitylation of GST-FANCLRING	completely inhibited the ubiquitylation of GST-FANCLRING			
CCN1CCN(c2cc(C)nc3nc(CN4CCCCC4C)nn23)CC1 (stereo not drawn) [CU2]	essentially abolished the ubiquitylation of GST-FANCLRING	did not affect ubiquitylation of either UBE2T or UBE1	but not GST-RNF8; also recorded: no detectable effects on ubiquitylation of GST-RNF8 and UBE2D1		no ubiquitylation of FANCLRING was observed; also recorded: inhibit the ubiquitylation of GST-FANCLRING; also recorded: completely inhibited the ubiquitylation of GST-FANCLRING		unaffected		
Cc1nnc(N(C)CC2CCN(CC(C)O)CC2)c(C#N)c1C (stereo not drawn) [CU9]	essentially abolished the ubiquitylation of GST-FANCLRING	did not affect ubiquitylation of either UBE2T or UBE1	but not GST-RNF8; also recorded: no detectable effects on ubiquitylation of GST-RNF8 and UBE2D1		no ubiquitylation of FANCLRING was observed; also recorded: inhibit the ubiquitylation of GST-FANCLRING; also recorded: completely inhibited the ubiquitylation of GST-FANCLRING			unaffected	
NC(=O)[C@@H]1CCCN1C(=O)c1cc(-n2cccc2)ccc1Cl [CU12]	essentially abolished the ubiquitylation of GST-FANCLRING	prevented the ubiquitylation of UBE2T	appeared to inhibit the ubiquitylation of all species in the assay		no ubiquitylation of FANCLRING was observed				essentially completely inhibited
